Source: article PMC5896373 (Molecular Pharmacology, 2018)

How the values were obtained:
[1] = target: T1, chimeric P2X7/1 receptor 89–94 (Homo sapiens, UniProt Q99572, I21V/M24R/N16P/N25R/Q22R/R20V/S23N/T19I/T90V/T94V/Y26L); parameters: method as in Allsopp et al., 2017; details: chimera 89–94; ref Allsopp et al., 2017; cited from earlier work
T1 construct: expressed in transfected cells; host or cells: Xenopus laevis oocytes (cRNA injection)
T1 sequence (Q99572 1-595 N16P/T19I/R20V/I21V/Q22R/S23N/M24R/N25R/Y26L/T90V/T94V): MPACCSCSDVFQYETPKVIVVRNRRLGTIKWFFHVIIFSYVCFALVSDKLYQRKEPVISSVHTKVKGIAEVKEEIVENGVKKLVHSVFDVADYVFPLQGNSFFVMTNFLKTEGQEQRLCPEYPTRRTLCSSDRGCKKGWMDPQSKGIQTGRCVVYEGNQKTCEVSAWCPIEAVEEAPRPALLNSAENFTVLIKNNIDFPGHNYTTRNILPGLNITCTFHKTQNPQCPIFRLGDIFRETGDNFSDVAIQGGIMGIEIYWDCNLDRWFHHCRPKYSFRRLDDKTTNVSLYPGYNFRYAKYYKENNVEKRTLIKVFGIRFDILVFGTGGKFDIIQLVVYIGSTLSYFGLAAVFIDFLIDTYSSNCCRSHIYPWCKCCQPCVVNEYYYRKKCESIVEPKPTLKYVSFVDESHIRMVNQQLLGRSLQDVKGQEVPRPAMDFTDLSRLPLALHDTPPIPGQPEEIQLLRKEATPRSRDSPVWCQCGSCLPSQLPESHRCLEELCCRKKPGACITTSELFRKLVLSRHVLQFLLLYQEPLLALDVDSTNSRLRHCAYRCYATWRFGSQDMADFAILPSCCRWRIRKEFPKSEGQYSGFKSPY

[2] = tested on: P2X7R left flipper point mutant T283A; experiment: Two-electrode voltage clamp of ATP-evoked currents in Xenopus oocytes; type: cell-based, human
Procedure: Injected oocytes were stored at 16°C in ND96 buffer [in millimolar concentrations, NaCl 96, KCl 2, CaCl2 1.8, MgCl2 1, sodium pyruvate 5, and HEPES 5 (pH 7.6) supplemented with 50 μg/ml gentamycin and 50 μg/ml tetracycline]. Three to seven days postinjection two-electrode voltage clamp recordings were made from oocytes bathed in divalent-free ND96 buffer (in millimolar concentrations, NaCl 96, KCl 2, sodium pyruvate 5, HEPES 5, and 0.1 flufenamic acid, pH 7.6). Oocytes were voltage clamped at a holding potential of −60 mV with a GeneClamp500B amplifier (Molecular Devices).
Electrophysiological traces were digitized with a Digidata 1322A and collected using pCLAMP 8.2 software (Molecular Devices, Menlo Park, CA). An EC90 concentration of ATP was used to test antagonist sensitivity for the P2X7-2Nβ and mutant receptors [ATP sensitivity of the chimeras and mutants are reported in [Allsopp et al. (2017)]] to standardize for any changes in ATP sensitivity.
Inhibition by the antagonists was expressed as the percentage of the peak current amplitude of an EC90 concentration of ATP recorded before the application of antagonist (ATP gave reproducible responses to ATP in the absence of antagonist). […] Any significant differences from the P2X7-2Nβ control were calculated by one-way analysis of variance, followed by Dunnett’s test (using GraphPad Prism 6). […]

SMILES | fold decrease in antagonist affinity [1] | fold decrease in antagonist sensitivity/affinity relative to P2X7-2Nβ [2]
Cl.Cl.O=C(CC12CC3CC(CC(C3)C1)C2)Nc1cccc2nc(NCCNCCO)ccc12 [AZ10606120, N-[2-[[2-[(2-hydroxyethyl)amino]ethyl]amino]-5-quinolinyl]-2-tricyclo[3.3.1.13,7]dec-1-ylacetamide dihydrochloride] | > 300 fold | 
COc1ccc(CC(=O)NC(N=C(NC#N)Nc2cccc3ncccc23)C(C)(C)C)cc1OC (centres unmarked) [A740003, N-[1-[[(cyanoamino)(5-quinolinylamino)methylene]amino]-2,2-dimethylpropyl]-3,4-dimethoxybenzeneacetamide] |  | ~4 fold
